Experimental data from PubChem BioAssay AID248 (DTP/NCI, 2004).
Values joined by “and” are separate entries in the source; they are usually repeats but may differ in a detail not shown here. Equal values may be shown once. Inconclusive results and toxic doses are left out. Rule as the data show it: active = T/C of 150% or more; inactive = T/C below 125%.

System: L1210 leukemia ip in BDF1 mice, survival T/C
Assay: NCI In Vivo Anticancer Drug Screen. Data for tumor model L1210 Leukemia (intraperitoneal) in B6D2F1 (BDF1) mice
Details: endpoint: mean survival time, higher = longer survival
Summary of the method: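 Mice bearing the transplanted tumor received compound or vehicle. Survival of the treated group was divided by that of the vehicle-treated control group to give the ratio.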

[1] = dose: 50.0 mg/kg/injection, schedule: Q01DX009 (ip), vehicle: saline
[2] = dose: 50.0 mg/kg/injection, schedule: Q04DX003 (ip), vehicle: saline
[3] = dose: 100.0 mg/kg/injection, schedule: Q01DX009 (ip), vehicle: saline
[4] = dose: 200.0 mg/kg/injection, schedule: Q01DX009 (ip), vehicle: saline
[5] = dose: 100.0 mg/kg/injection, schedule: Q01DX001 (ip), vehicle: saline
[6] = dose: 200.0 mg/kg/injection, schedule: Q01DX001 (ip), vehicle: saline
[7] = dose: 400.0 mg/kg/injection, schedule: Q01DX001 (ip), vehicle: saline
[8] = dose: 100.0 mg/kg/injection, schedule: Q01DX001 (ip), vehicle: carboxymethylcellulose (CMC)
[9] = dose: 200.0 mg/kg/injection, schedule: Q01DX001 (ip), vehicle: carboxymethylcellulose (CMC)
[10] = dose: 400.0 mg/kg/injection, schedule: Q01DX001 (ip), vehicle: carboxymethylcellulose (CMC)
[11] = dose: 100.0 mg/kg/injection, schedule: Q04DX002 (ip), vehicle: Klucel (hydroxypropylcellulose) (HPC)
[12] = dose: 200.0 mg/kg/injection, schedule: Q04DX002 (ip), vehicle: Klucel (hydroxypropylcellulose) (HPC)
[13] = dose: 400.0 mg/kg/injection, schedule: Q04DX002 (ip), vehicle: Klucel (hydroxypropylcellulose) (HPC)
[14] = dose: 100.0 mg/kg/injection, schedule: Q01DX009 (ip), vehicle: saline with Tween-80
[15] = dose: 100.0 mg/kg/injection, schedule: Q04DX003 (ip), vehicle: saline with Tween-80
[16] = dose: 200.0 mg/kg/injection, schedule: Q01DX009 (ip), vehicle: saline with Tween-80
[17] = dose: 200.0 mg/kg/injection, schedule: Q04DX003 (ip), vehicle: saline with Tween-80
[18] = dose: 400.0 mg/kg/injection, schedule: Q01DX009 (ip), vehicle: saline with Tween-80
[19] = dose: 400.0 mg/kg/injection, schedule: Q04DX003 (ip), vehicle: saline with Tween-80

Measured: T/C

CC(=O)N(C)NC(=O)c1ccccn1
inactive: dose: 12.5 mg/kg/injection, schedule: Q01DX009 (ip), vehicle: water 103 % of control | dose: 25.0 mg/kg/injection, schedule: Q01DX009 (ip), vehicle: water 103 % of control | dose: 50.0 mg/kg/injection, schedule: Q01DX009 (ip), vehicle: water 105 % of control

O=[As](O)(CC(O)c1ccccc1)c1ccc(Cl)cc1 (stereo not drawn)
inactive: dose: 6.25 mg/kg/injection, schedule: Q01DX001 (ip), vehicle: saline with Tween-80 100 % of control | dose: 12.5 mg/kg/injection, schedule: Q01DX001 (ip), vehicle: saline with Tween-80 109 % of control | dose: 25.0 mg/kg/injection, schedule: Q01DX001 (ip), vehicle: saline with Tween-80 105 % of control and 116 % of control

O=CNNC(=O)c1ccccn1
inactive: dose: 50.0 mg/kg/injection, schedule: Q01DX001 (ip), vehicle: water 108 % of control | [1] 98 % of control | [2] 100 % of control | dose: 100.0 mg/kg/injection, schedule: Q01DX001 (ip), vehicle: water 108 % of control | [3] 101 % of control | dose: 100.0 mg/kg/injection, schedule: Q04DX003 (ip), vehicle: saline 96 % of control | [4] 114 % of control | dose: 200.0 mg/kg/injection, schedule: Q04DX003 (ip), vehicle: saline 109 % of control

Cc1coc(NS(=O)(=O)c2ccc(N=Nc3c(N)[nH]c(=O)[nH]c3=O)cc2)c1C
inactive: [5] 103 % of control | [6] 96 % of control | [7] 104 % of control

CCCCCCCCCCCCCS
inactive: dose: 40.0 mg/kg/injection, schedule: Q01DX Z (ip), vehicle: saline 108 % of control | dose: 50.0 mg/kg/injection, schedule: Q04DX003 (ip), vehicle: carboxymethylcellulose (CMC) 100 % of control | dose: 60.0 mg/kg/injection, schedule: Q01DX Z (ip), vehicle: saline 120 % of control | dose: 90.0 mg/kg/injection, schedule: Q01DX Z (ip), vehicle: saline 111 % of control | [8] 110 % of control | dose: 100.0 mg/kg/injection, schedule: Q04DX003 (ip), vehicle: carboxymethylcellulose (CMC) 105 % of control | dose: 135.0 mg/kg/injection, schedule: Q01DX Z (ip), vehicle: saline 120 % of control | [9] 101 % of control | dose: 200.0 mg/kg/injection, schedule: Q01DX Z (ip), vehicle: saline 108 % of control | dose: 200.0 mg/kg/injection, schedule: Q04DX003 (ip), vehicle: carboxymethylcellulose (CMC) 100 % of control | dose: 202.5 mg/kg/injection, schedule: Q01DX Z (ip), vehicle: saline 117 % of control | [10] 116 % of control | dose: 450.0 mg/kg/injection, schedule: Q01DX Z (ip), vehicle: saline 108 % of control | dose: 675.0 mg/kg/injection, schedule: Q01DX Z (ip), vehicle: saline 90 % of control

CCCCN1CCNCC1
inactive: [1] 95 % of control | [3] 97 % of control | [4] 106 % of control

CN(C)c1ccc(SSc2ccc(N(C)C)cc2)cc1
inactive: [5] 104 % of control | [11] 98 % of control | [6] 93 % of control | [12] 102 % of control | [7] 98 % of control | [13] 91 % of control

O=c1[nH]c(=S)[nH]c2nccnc12
inactive: dose: 16.0 mg/kg/injection, schedule: Q01DX Z (ip), vehicle: methylcellulose (MC) 108 % of control | dose: 31.0 mg/kg/injection, schedule: Q01DX Z (ip), vehicle: methylcellulose (MC) 103 % of control | dose: 62.0 mg/kg/injection, schedule: Q01DX Z (ip), vehicle: methylcellulose (MC) 105 % of control | dose: 125.0 mg/kg/injection, schedule: Q01DX Z (ip), vehicle: methylcellulose (MC) 97 % of control and 106 % of control | dose: 250.0 mg/kg/injection, schedule: Q01DX Z (ip), vehicle: methylcellulose (MC) 97 % of control | dose: 500.0 mg/kg/injection, schedule: Q01DX Z (ip), vehicle: methylcellulose (MC) 106 % of control

O=C1OC(c2cccc([N+](=O)[O-])c2)=N/C1=C\c1ccc(O)cc1
inactive: dose: 100.0 mg/kg/injection, schedule: Q04DX002 (ip), vehicle: saline 101 % of control | dose: 200.0 mg/kg/injection, schedule: Q04DX002 (ip), vehicle: saline 101 % of control | dose: 400.0 mg/kg/injection, schedule: Q04DX002 (ip), vehicle: saline 101 % of control

COc1ccc(CN2CCN(Cc3ccc(OC)c(OC)c3)C2c2ccc(OC)c(OC)c2)cc1OC
inactive: [14] 94 % of control | [15] 102 % of control | [16] 104 % of control | [17] 93 % of control | [18] 108 % of control | [19] 91 % of control

Cc1ccccc1NC(=O)C1CCC(C)(C(=O)O)C1(C)C (stereo not drawn)
inactive: [14] 102 % of control | [16] 102 % of control | [18] 95 % of control

O/N=C1\c2ccccc2-c2ccc(Cl)cc21
inactive: [8] 95 % of control | [9] 111 % of control | [10] 97 % of control

CCC1CN1P1(=O)OCC(C)(N)CO1 (stereo not drawn)
inactive: [8] 104 % of control | [9] 101 % of control | [10] 101 % of control

O=S(C/C=C/CS(=O)c1ccccc1)c1ccccc1 (stereo not drawn)
inactive: [11] 105 % of control | [12] 116 % of control | [13] 103 % of control

COc1ccc2c(c1)N(CCC1CCCCN1C)c1ccccc1S2 (stereo not drawn)
inactive: dose: 3.12 mg/kg/injection, schedule: Q01DX009 (ip), vehicle: saline 108 % of control and 121 % of control | dose: 6.25 mg/kg/injection, schedule: Q01DX009 (ip), vehicle: saline 105 % of control and 118 % of control | dose: 6.25 mg/kg/injection, schedule: Q04DX003 (ip), vehicle: saline 107 % of control | dose: 12.5 mg/kg/injection, schedule: Q01DX009 (ip), vehicle: saline 111 % of control | dose: 12.5 mg/kg/injection, schedule: Q04DX003 (ip), vehicle: saline 106 % of control | dose: 25.0 mg/kg/injection, schedule: Q01DX009 (ip), vehicle: saline 117 % of control | dose: 25.0 mg/kg/injection, schedule: Q04DX003 (ip), vehicle: saline 117 % of control and 122 % of control | [2] 114 % of control and 117 % of control

C[n+]1ccccc1/C=N/Nc1ccccc1
inactive: dose: 75.0 mg/kg/injection, schedule: Q01DX001 (ip), vehicle: other 96 % of control

CC(CC(C)(C)C(C)(C)C)C(C)(C)C (stereo not drawn)
inactive: [5] 90 % of control | [6] 100 % of control | [7] 107 % of control

O=C(CCCC(=O)N/N=C/c1ccc(-c2ccccc2)cc1)N/N=C\c1ccc(-c2ccccc2)cc1
inactive: dose: 50.0 mg/kg/injection, schedule: Q01DX001 (ip), vehicle: saline 96 % of control | [5] 98 % of control | [6] 96 % of control | [7] 96 % of control

CCSc1nc(=S)cc(C)[nH]1
inactive: dose: 100.0 mg/kg/injection, schedule: Q01DX009 (ip), vehicle: Klucel (hydroxypropylcellulose) (HPC) 96 % of control | dose: 100.0 mg/kg/injection, schedule: Q04DX003 (ip), vehicle: Klucel (hydroxypropylcellulose) (HPC) 103 % of control | dose: 200.0 mg/kg/injection, schedule: Q01DX009 (ip), vehicle: Klucel (hydroxypropylcellulose) (HPC) 91 % of control | dose: 200.0 mg/kg/injection, schedule: Q04DX003 (ip), vehicle: Klucel (hydroxypropylcellulose) (HPC) 98 % of control | dose: 400.0 mg/kg/injection, schedule: Q01DX009 (ip), vehicle: Klucel (hydroxypropylcellulose) (HPC) 90 % of control | dose: 400.0 mg/kg/injection, schedule: Q04DX003 (ip), vehicle: Klucel (hydroxypropylcellulose) (HPC) 87 % of control

CCOC1C(Br)=Cc2ccccc2N1C(=O)OC (stereo not drawn)
inactive: dose: 100.0 mg/kg/injection, schedule: Q01DX001 (ip), vehicle: Klucel (hydroxypropylcellulose) (HPC) 101 % of control | dose: 200.0 mg/kg/injection, schedule: Q01DX001 (ip), vehicle: Klucel (hydroxypropylcellulose) (HPC) 97 % of control | dose: 400.0 mg/kg/injection, schedule: Q01DX001 (ip), vehicle: Klucel (hydroxypropylcellulose) (HPC) 101 % of control

COc1cc(CCCc2ccc(O)c(=O)cc2)cc(OC)c1OC
inactive: [15] 111 % of control | [17] 94 % of control | [19] 94 % of control

CC1(C)CC(=O)C=C(OCCc2ccccc2)C1
inactive: [15] 96 % of control | [17] 94 % of control | [19] 91 % of control
